We go through 5 compounds from paper PMC7744269 (Bioorganic & medicinal chemistry, 2010).

One may read the IC50 as the concentration at which inhibition is half-maximal. Low readings indicate higher potency, high ones lower potency.

Test [1] deals with viruses (HIV, Vaccinia virus, Cowpox virus, etc.). As to conditions: previously reported; cited from earlier work.
The target in test [2] is T1, Ureaplasma parvum thymidine kinase (UpTK) (Ureaplasma parvum serovar 3, UniProt Q9PPP5).
T1 sequence (Q9PPP5 1-223): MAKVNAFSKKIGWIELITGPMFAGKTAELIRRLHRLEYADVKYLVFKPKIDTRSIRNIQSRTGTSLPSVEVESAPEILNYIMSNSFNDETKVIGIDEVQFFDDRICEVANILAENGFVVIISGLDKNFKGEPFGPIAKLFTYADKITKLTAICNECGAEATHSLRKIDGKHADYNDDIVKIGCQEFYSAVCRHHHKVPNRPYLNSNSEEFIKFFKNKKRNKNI
Nature of the test: Phosphate transfer assay with [γ-32P]-ATP. Type of test: biochemical. As to conditions: for Vmax values of UpTK, times lower than with AZT: compared with AZT.

The target of test [3] is T2, human thymidine kinase 1 (hTK1) (Homo sapiens, UniProt P04183).
T2 sequence (P04183 1-234): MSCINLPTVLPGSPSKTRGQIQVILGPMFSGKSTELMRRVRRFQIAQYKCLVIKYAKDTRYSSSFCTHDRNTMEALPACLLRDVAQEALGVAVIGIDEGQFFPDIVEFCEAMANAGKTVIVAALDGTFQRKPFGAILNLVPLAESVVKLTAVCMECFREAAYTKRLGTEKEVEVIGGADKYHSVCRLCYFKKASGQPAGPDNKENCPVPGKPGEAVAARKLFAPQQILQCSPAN
Kind of test: IC50 determination, DE-81 filter paper [3H]-dThd assay, hTK1. Type of test: biochemical.

With `Cc1cn([C@H]2C[C@H](n3cc(CO)nn3)[C@@H](CO)O2)c(=O)[nH]c1=O` [Compound 1, 3′-(4-Hydroxymethyl-1,2,3-triazol-1-yl)-3′-deoxythymidine], in test [1], the Antiviral activity result is “devoid of significant antiviral activity”.
On to `CCCc1cn([C@H]2C[C@H](n3cc(C)c(=O)[nH]c3=O)O[C@@H]2CO)nn1` [Compound 6, 3′-(4-Propyl-1,2,3-triazol-1-yl)-3′-deoxythymidine], for which the “Relative efficiency with UpTK” value in test [2] (compared to dThd (set to 100%)) was 1.6%.
Take `Cc1cn([C@H]2C[C@H](n3cc(-c4ccccc4)nn3)[C@@H](CO)O2)c(=O)[nH]c1=O` [Compound 9, 3′-(4-Phenyl-1,2,3-triazol-1-yl)-3′-deoxythymidine]: the Antiviral activity result in test [1] is on record as “devoid of significant antiviral activity”. Also, the “Vmax values of UpTK, times lower than with AZT” value in test [2] is on record as 3–4.
Regarding `Cc1cn([C@H]2C[C@H](n3cc(-c4ccccn4)nn3)[C@@H](CO)O2)c(=O)[nH]c1=O` [Compound 12, 3′-(4-(2-Pyridine)-1,2,3-triazole-1-yl)-2′-deoxythymidine], the Antiviral activity entry in test [1] is reported as “devoid of significant antiviral activity”. The compound further displayed an IC50 in test [3] of 40 to 50 µM. The “Vmax values of UpTK, times lower than with AZT” value in test [2] is given as 3–4.
For the compound `Cc1cn([C@H]2C[C@H](n3cc(-c4ccc(F)cc4)nn3)[C@@H](CO)O2)c(=O)[nH]c1=O` [Compound 13, 3′-(4-(4-Fluorophenyl)-1,2,3-triazole-1-yl)-2′-deoxythymidine], the Antiviral activity result in test [1] was “devoid of significant antiviral activity”. For the same compound, the “Phosphorylation with UpTK compared to hTK1 (relative activity)” value in test [2] (UpTK vs hTK1) was “five times more potent with UpTK than hTK1”. In test [2], the “Vmax values of UpTK, times lower than with AZT” value was 3–4.
